Experimental data published in US20020082249A1, “Prodrugs of aspartyle protease inhibitors” (priority 1997, published 2002).

Columns and labels:
[1] = Pharmacokinetics in Sprague-Dawley rats following single oral dose; conditions: for AUC: rats; for Cmax / half-life: both, Sprague-Dawley, rat, in vivo, po
[2] = Similar oral pharmacokinetic study on dogs (solid capsule and solution formulations); conditions: dog, in vivo, 17 mg/kg

Row | compound 229 detected in blood samples ([1]; after oral administration, first time point blood sample or later samples, suggests first pass metabolism to VX-478) | delivery of VX-478, aqueous dose of 229 versus VX-478 formulations ([1]; aqueous dose of compound 229 compared with the two non-aqueous formulations used for VX-478) | bioavailability, aqueous solution versus other vehicles ([1]; oral administration of compound 229 as an aqueous solution, in comparison to the other vehicles studied) | AUC ([1]; compound 229 PO, 40 mg/Kg molar equiv. of VX-478, vehicle H2O:PG:EtOH 5:4:1) | AUC ([1]; compound 229 PO, 40 mg/Kg molar equiv. of VX-478, vehicle H2O, VX-478 measured in plasma) | AUC ([1]; compound 229 PO, 40 mg/Kg molar equiv. of VX-478, vehicle PEG 400) | AUC ([1]; compound 229 PO, 40 mg/Kg molar equiv. of VX-478, vehicle TPGS/PEG 400/PG) | SMILES | AUC [2] | Cmax [2] | Tmax [2] | Cmax ([1]; 41 mg/kg) | half-life ([1]; 41 mg/kg) | Cmax ([1]; 50 mg/kg) | half-life ([1]; 50 mg/kg) | AUC ([1]; VX-478 41 mg/Kg PO, vehicle 33% TPGS/PEG 400/PG) | AUC ([1]; VX-478 50 mg/Kg PO, vehicle 12.5% TPGS/PEG 400/PG)
1 | none of that compound was detected | equivalence in delivery | improved bioavailability | 10.6 ug*hr/m1 | 11.7 ug*hr/m1 | 7.4 ug*hr/m1 | 8.2 ug*hr/m1 | CC(C)CN(C[C@@H](OP(=O)(O)O)[C@H](Cc1ccccc1)NC(=O)O[C@H]1CCOC1)S(=O)(=O)c1ccc(N)cc1 [Compound 229] |  |  |  |  |  |  |  |  | 
2 |  |  |  |  |  |  |  | CC(C)CN(C[C@@H](O)[C@H](Cc1ccccc1)NC(=O)O[C@H]1CCOC1)S(=O)(=O)c1ccc(N)cc1 [VX-478] | 23500 ± 7400 ng·h/mL | 6800 ± 1100 ng/mL | 1 ± 0.8 h | 14 µM | 2.5 h | 6 µM | 2.2 h | 29.6 ug*hr/m1 | 16.2 ug*hr/m1
